From patent US8017350B2, “Glimepiride- and insulin-induced glycosylphosphatidylinositol-specific phospholipase C regulation” (Sanofi-Aventis Deutschland GmbH, priority 2004, dated 2011)

Assays:
Type in all cases: biochemical
[1] = test system: GPI-PLC, hcDIGs of rat adipocytes; conditions: isolated hcDIGs; concentration-dependent
[2] = target: T1, rat serum GPI-PLD (Rattus norvegicus, UniProt Q8R2H5); assay: GPI-PLD (rat serum) assay, human placental aP substrate; conditions: FIG. 2; read-out: apparent IC50
T1 construct: GPI-PLD (rat serum) was assayed according to; from tissue; host or cells: rat serum
Method: GPI-PLD (rat serum) was assayed according to “Hari et al. (1997) Biochim. Biophys. Acta 1355: 293-302” by incubation with 10 μl of human placental aP solution (100 U/ml in 10 mM Hepes/NaOH, pH 7.0, 150 mM NaCl) in 100 μl of 200 mM Tris/maleate (pH 7.0) and 1% Nonidet P-40 for 10 min at 37° C. and subsequent termination of the reaction by addition of 0.4 ml of ice-cold stop buffer (10 mM Hepes/NaOH, pH 7.0, 150 mM NaCl, 0.1 mM MgCl2 and 0.01 mM zinc acetate). GPI-PLC (T. brucei) was assayed as described in “Mensa-Wilmot et al. (1995) Methods Enzymol. […]
Pelleted hc/lcDIGs (10-50 μg protein) or (G)PI-PLC reaction mixtures (0.5 ml) were separated into amphiphilic and hydrophilic proteins using partitioning between TX-114-enriched and depleted phases according to “Bordier, C., (1981) J. Biol, Chem. […]” by suspending in 1 ml of ice-cold TX-114 (1%), 25 mM Tris/HCl (pH 7.4), 144 mM NaCl or mixing with 0.5 ml of ice-cold TX-114 (2%), respectively. […] After re-extraction of the lower TX-114-enriched phase, aliquots of the pooled upper TX-114-depleted phase were measured for 5′-Nuc, aP and AChE activity or precipitated (15 polyethylene glycol 4000) for SDS-PAGE analysis.
FIG. 2: Potency of GPI-2350. […] The lipolytic activity was calculated as % of the control reaction in the absence of GPI-2350 (set at 100%). […]

[3] = target: T2, bovine AChE (Bos taurus, UniProt P23795); assay: AChE activity; conditions: 50 μM
T2 construct: solubilized and partially purified bovine erythrocyte AChE; from tissue; host or cells: bovine erythrocytes
Method: Electroporation was performed as described in “Müller, G. et al., (2000) Mol. Cell. Biol. 20: 4708-4723”. Lipolysis was determined as release of glycerol or fluorescent NBD-FA from prelabeled and isoproterenol-stimulated adipocytes as described in “Müller, G. et al., (2003) Biochimie 85: 1245-1256”. Gce1 was detected by photolabeling of solubilized plasma membranes or hc/lcDIGs (10-50 μg protein) with 8-N3—[^32P]cAMP and subsequent phosphorimaging as described in “Müller, G. et al., (1994) Biochemistry 33: 12149-12159”. 5′-Nuc, aP and AChE activities were measured according to “Eliakim, R. et al., (1990) Biochim. Biophys. Acta 1355: 293-302”. Protein was determined using the BCA protein determination kit from Pierce (Rockford, Ill.) and BSA as calibration standard. SDS-PAGE was performed using precast gels (Novex, San Diego, Calif.; 10% Bis-Tris resolving gel, morpholinopropanesulfonic acid-SDS running buffer). Lumiimages were evaluated on a LumiImager using LumiImager software (Roche Diagnostics). Phosphor- and fluorescence images were processed and quantified using the Storm 860 PhosphorImager system (Molecular Dynamics, Gelsenkirchen, Germany). Figures were constructed using the ADOBE PHOTOSHOP software (Adobe Systems, Mountain View, Calif.).
FIG. 3: Selectivity of GPI-2350. […]

T1 sequence (Q8R2H5 24-843): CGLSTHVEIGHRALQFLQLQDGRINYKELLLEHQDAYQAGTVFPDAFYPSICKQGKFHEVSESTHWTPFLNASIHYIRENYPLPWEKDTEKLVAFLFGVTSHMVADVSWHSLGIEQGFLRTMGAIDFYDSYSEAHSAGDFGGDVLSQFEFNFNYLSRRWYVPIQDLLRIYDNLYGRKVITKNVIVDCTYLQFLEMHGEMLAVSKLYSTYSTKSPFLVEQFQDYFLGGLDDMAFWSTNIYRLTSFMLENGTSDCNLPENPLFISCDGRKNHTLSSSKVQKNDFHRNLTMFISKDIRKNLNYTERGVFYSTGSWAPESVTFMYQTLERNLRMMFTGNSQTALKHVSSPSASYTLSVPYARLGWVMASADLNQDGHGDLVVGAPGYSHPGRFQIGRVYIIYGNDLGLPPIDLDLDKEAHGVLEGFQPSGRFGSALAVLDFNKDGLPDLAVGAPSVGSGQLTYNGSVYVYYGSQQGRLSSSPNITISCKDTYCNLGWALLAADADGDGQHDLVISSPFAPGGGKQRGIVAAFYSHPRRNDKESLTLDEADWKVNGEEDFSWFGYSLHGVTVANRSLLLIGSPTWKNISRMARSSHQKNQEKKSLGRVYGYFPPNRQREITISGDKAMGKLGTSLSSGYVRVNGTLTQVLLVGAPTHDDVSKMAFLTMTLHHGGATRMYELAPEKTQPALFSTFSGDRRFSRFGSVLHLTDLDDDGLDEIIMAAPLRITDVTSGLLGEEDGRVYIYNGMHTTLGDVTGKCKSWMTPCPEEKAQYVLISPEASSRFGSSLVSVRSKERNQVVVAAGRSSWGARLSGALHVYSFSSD
T2 sequence (P23795 31-614 isoform P23795-2 limits assumed): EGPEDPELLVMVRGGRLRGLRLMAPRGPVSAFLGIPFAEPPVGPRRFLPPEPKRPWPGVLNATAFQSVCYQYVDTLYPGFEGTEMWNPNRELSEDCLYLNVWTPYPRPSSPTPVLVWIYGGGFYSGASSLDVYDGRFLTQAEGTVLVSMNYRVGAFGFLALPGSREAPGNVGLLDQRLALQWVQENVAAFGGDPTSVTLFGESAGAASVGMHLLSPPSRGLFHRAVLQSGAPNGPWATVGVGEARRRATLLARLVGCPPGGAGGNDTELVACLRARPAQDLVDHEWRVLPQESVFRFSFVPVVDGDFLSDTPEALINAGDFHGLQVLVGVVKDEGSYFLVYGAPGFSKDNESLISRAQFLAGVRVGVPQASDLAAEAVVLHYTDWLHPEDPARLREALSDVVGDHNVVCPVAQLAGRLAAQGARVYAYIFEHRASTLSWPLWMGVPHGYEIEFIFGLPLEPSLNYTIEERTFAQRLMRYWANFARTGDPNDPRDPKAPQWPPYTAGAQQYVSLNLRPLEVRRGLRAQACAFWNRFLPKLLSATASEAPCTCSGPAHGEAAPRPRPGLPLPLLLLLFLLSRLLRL

## CCCCCCCCCCCCP1(=O)O[C@@H]2[C@H](O)[C@@H](O)[C@H](O)[C@@H](O)[C@@H]2O1 (stereo partly drawn) [GPI-2350, myo-inositol-1,2-cyclo-dodecylphosphonic acid]
[1]
  reduction of basal and glimepiride-/insulin-stimulated GPI-PLC activity: to lower than basal and similar levels
[2]
  IC50: 1 µM
[3]
  effect on AChE: not significantly affected
